{"source": "patent US20230392217A1", "about": "(priority 2020, published 2023)", "origin": "cited, not measured here", "key": {"[1]": {"tested_on": "methicillin-sensitive S. aureus (MSSA)", "settings": "cited from earlier work"}, "[2]": {"tested_on": "methicillin-resistant S. aureus (MRSA)", "settings": "cited from earlier work"}}, "note": "Read-outs that look alike come from different tables or passages of the source.", "data": [{"molecule": "COc1cccc(OC)c1C(=O)N[C@@H]1C(=O)N2[C@@H]1SC(C)(C)[C@@H]2C(=O)O", "note": "[Methicillin, methicillin]", "values": [{"measurement": "antibiotic susceptibility/resistance", "setting": "[1]; strain MSSA #1", "result": "Susceptible"}, {"measurement": "antibiotic susceptibility/resistance", "setting": "[1]; strain MSSA #2", "result": "Susceptible"}, {"measurement": "antibiotic susceptibility/resistance", "setting": "[1]; strain MSSA #3", "result": "Susceptible"}, {"measurement": "antibiotic susceptibility/resistance", "setting": "[1]; strain MSSA #4", "result": "Susceptible"}, {"measurement": "antibiotic susceptibility/resistance", "setting": "[1]; strain MSSA #5", "result": "Susceptible"}, {"measurement": "antibiotic susceptibility/resistance", "setting": "[1]; strain MSSA #6", "result": "Susceptible"}, {"measurement": "antibiotic susceptibility/resistance", "setting": "[1]; strain MSSA #7", "result": "Susceptible"}, {"measurement": "antibiotic susceptibility/resistance", "setting": "[1]; strain MSSA #8", "result": "Susceptible"}, {"measurement": "antibiotic susceptibility/resistance", "setting": "[1]; strain MSSA #9", "result": "Susceptible"}, {"measurement": "antibiotic susceptibility/resistance", "setting": "[1]; strain MSSA #10", "result": "Susceptible"}, {"measurement": "antibiotic susceptibility/resistance", "setting": "[1]; strain MSSA #11", "result": "Susceptible"}, {"measurement": "antibiotic susceptibility/resistance", "setting": "[1]; strain MSSA #12", "result": "Susceptible"}, {"measurement": "antibiotic susceptibility/resistance", "setting": "[1]; strain MSSA #13", "result": "Susceptible"}, {"measurement": "antibiotic susceptibility/resistance", "setting": "[1]; strain MSSA #14", "result": "Susceptible"}, {"measurement": "antibiotic susceptibility/resistance", "setting": "[1]; strain MSSA #15", "result": "Susceptible"}, {"measurement": "antibiotic susceptibility/resistance", "setting": "[1]; strain MSSA #16", "result": "Susceptible"}, {"measurement": "antibiotic susceptibility/resistance", "setting": "[1]; strain MSSA #17", "result": "Susceptible"}, {"measurement": "antibiotic susceptibility/resistance", "setting": "[1]; strain MSSA #18", "result": "Susceptible"}, {"measurement": "antibiotic susceptibility/resistance", "setting": "[1]; strain MSSA #19", "result": "Susceptible"}, {"measurement": "antibiotic susceptibility/resistance", "setting": "[1]; strain MSSA #20", "result": "Susceptible"}, {"measurement": "antibiotic susceptibility/resistance", "setting": "[2]; strain MRSA #1", "result": "Resistant"}, {"measurement": "antibiotic susceptibility/resistance", "setting": "[2]; strain MRSA #2", "result": "Resistant"}, {"measurement": "antibiotic susceptibility/resistance", "setting": "[2]; strain MRSA #3", "result": "Resistant"}, {"measurement": "antibiotic susceptibility/resistance", "setting": "[2]; strain MRSA #4", "result": "Resistant"}, {"measurement": "antibiotic susceptibility/resistance", "setting": "[2]; strain MRSA #5", "result": "Resistant"}, {"measurement": "antibiotic susceptibility/resistance", "setting": "[2]; strain MRSA #6", "result": "Resistant"}, {"measurement": "antibiotic susceptibility/resistance", "setting": "[2]; strain MRSA #7", "result": "Resistant"}, {"measurement": "antibiotic susceptibility/resistance", "setting": "[2]; strain MRSA #8", "result": "Resistant"}, {"measurement": "antibiotic susceptibility/resistance", "setting": "[2]; strain MRSA #9", "result": "Resistant"}, {"measurement": "antibiotic susceptibility/resistance", "setting": "[2]; strain MRSA #10", "result": "Resistant"}, {"measurement": "antibiotic susceptibility/resistance", "setting": "[2]; strain MRSA #11", "result": "Resistant"}, {"measurement": "antibiotic susceptibility/resistance", "setting": "[2]; strain MRSA #12", "result": "Resistant"}, {"measurement": "antibiotic susceptibility/resistance", "setting": "[2]; strain MRSA #13", "result": "Resistant"}, {"measurement": "antibiotic susceptibility/resistance", "setting": "[2]; strain MRSA #14", "result": "Resistant"}, {"measurement": "antibiotic susceptibility/resistance", "setting": "[2]; strain MRSA #15", "result": "Resistant"}, {"measurement": "antibiotic susceptibility/resistance", "setting": "[2]; strain MRSA #16", "result": "Resistant"}, {"measurement": "antibiotic susceptibility/resistance", "setting": "[2]; strain MRSA #17", "result": "Resistant"}, {"measurement": "antibiotic susceptibility/resistance", "setting": "[2]; strain MRSA #18", "result": "Resistant"}, {"measurement": "antibiotic susceptibility/resistance", "setting": "[2]; strain MRSA #19", "result": "Resistant"}, {"measurement": "antibiotic susceptibility/resistance", "setting": "[2]; strain MRSA #20", "result": "Resistant"}, {"measurement": "antibiotic susceptibility/resistance", "setting": "[2]; strain MRSA #21", "result": "Resistant"}, {"measurement": "antibiotic susceptibility/resistance", "setting": "[2]; strain MRSA #22", "result": "Resistant"}, {"measurement": "antibiotic susceptibility/resistance", "setting": "[2]; strain MRSA #23", "result": "Resistant"}, {"measurement": "antibiotic susceptibility/resistance", "setting": "[2]; strain MRSA #24", "result": "Susceptible"}, {"measurement": "antibiotic susceptibility/resistance", "setting": "[2]; strain MRSA #25", "result": "Resistant"}, {"measurement": "antibiotic susceptibility/resistance", "setting": "[2]; strain MRSA #26", "result": "Resistant"}, {"measurement": "antibiotic susceptibility/resistance", "setting": "[2]; strain MRSA #27", "result": "Resistant"}, {"measurement": "antibiotic susceptibility/resistance", "setting": "[2]; strain MRSA #28", "result": "Resistant"}, {"measurement": "antibiotic susceptibility/resistance", "setting": "[2]; strain MRSA #29", "result": "Resistant"}, {"measurement": "antibiotic susceptibility/resistance", "setting": "[2]; strain MRSA #30", "result": "Resistant"}]}, {"molecule": "CN[C@H](CC(C)C)C(=O)N[C@H]1C(=O)N[C@@H](CC(N)=O)C(=O)N[C@H]2C(=O)N[C@H]3C(=O)N[C@H](C(=O)N[C@H](C(=O)O)c4cc(O)cc(O)c4-c4cc3ccc4O)[C@H](O)c3ccc(c(Cl)c3)Oc3cc2cc(c3O[C@@H]2O[C@H](CO)[C@@H](O)[C@H](O)[C@H]2O[C@H]2C[C@](C)(N)[C@H](O)[C@H](C)O2)Oc2ccc(cc2Cl)[C@H]1O", "note": "[Vancomycin, vancomycin]", "values": [{"measurement": "antibiotic susceptibility/resistance", "setting": "[1]; strain MSSA #1", "result": "Susceptible"}, {"measurement": "antibiotic susceptibility/resistance", "setting": "[1]; strain MSSA #2", "result": "Susceptible"}, {"measurement": "antibiotic susceptibility/resistance", "setting": "[1]; strain MSSA #3", "result": "Susceptible"}, {"measurement": "antibiotic susceptibility/resistance", "setting": "[1]; strain MSSA #4", "result": "Susceptible"}, {"measurement": "antibiotic susceptibility/resistance", "setting": "[1]; strain MSSA #5", "result": "Susceptible"}, {"measurement": "antibiotic susceptibility/resistance", "setting": "[1]; strain MSSA #6", "result": "Susceptible"}, {"measurement": "antibiotic susceptibility/resistance", "setting": "[1]; strain MSSA #7", "result": "Susceptible"}, {"measurement": "antibiotic susceptibility/resistance", "setting": "[1]; strain MSSA #8", "result": "Susceptible"}, {"measurement": "antibiotic susceptibility/resistance", "setting": "[1]; strain MSSA #9", "result": "Susceptible"}, {"measurement": "antibiotic susceptibility/resistance", "setting": "[1]; strain MSSA #10", "result": "Susceptible"}, {"measurement": "antibiotic susceptibility/resistance", "setting": "[1]; strain MSSA #11", "result": "Susceptible"}, {"measurement": "antibiotic susceptibility/resistance", "setting": "[1]; strain MSSA #12", "result": "Susceptible"}, {"measurement": "antibiotic susceptibility/resistance", "setting": "[1]; strain MSSA #13", "result": "Susceptible"}, {"measurement": "antibiotic susceptibility/resistance", "setting": "[1]; strain MSSA #14", "result": "Susceptible"}, {"measurement": "antibiotic susceptibility/resistance", "setting": "[1]; strain MSSA #15", "result": "Susceptible"}, {"measurement": "antibiotic susceptibility/resistance", "setting": "[1]; strain MSSA #16", "result": "Susceptible"}, {"measurement": "antibiotic susceptibility/resistance", "setting": "[1]; strain MSSA #17", "result": "Susceptible"}, {"measurement": "antibiotic susceptibility/resistance", "setting": "[1]; strain MSSA #18", "result": "Susceptible"}, {"measurement": "antibiotic susceptibility/resistance", "setting": "[1]; strain MSSA #19", "result": "Susceptible"}, {"measurement": "antibiotic susceptibility/resistance", "setting": "[1]; strain MSSA #20", "result": "Susceptible"}, {"measurement": "antibiotic susceptibility/resistance", "setting": "[2]; strain MRSA #1", "result": "Susceptible"}, {"measurement": "antibiotic susceptibility/resistance", "setting": "[2]; strain MRSA #2", "result": "Susceptible"}, {"measurement": "antibiotic susceptibility/resistance", "setting": "[2]; strain MRSA #3", "result": "Susceptible"}, {"measurement": "antibiotic susceptibility/resistance", "setting": "[2]; strain MRSA #4", "result": "Susceptible"}, {"measurement": "antibiotic susceptibility/resistance", "setting": "[2]; strain MRSA #5", "result": "Susceptible"}, {"measurement": "antibiotic susceptibility/resistance", "setting": "[2]; strain MRSA #6", "result": "Susceptible"}, {"measurement": "antibiotic susceptibility/resistance", "setting": "[2]; strain MRSA #7", "result": "Susceptible"}, {"measurement": "antibiotic susceptibility/resistance", "setting": "[2]; strain MRSA #8", "result": "Susceptible"}, {"measurement": "antibiotic susceptibility/resistance", "setting": "[2]; strain MRSA #9", "result": "Susceptible"}, {"measurement": "antibiotic susceptibility/resistance", "setting": "[2]; strain MRSA #10", "result": "Susceptible"}, {"measurement": "antibiotic susceptibility/resistance", "setting": "[2]; strain MRSA #11", "result": "Susceptible"}, {"measurement": "antibiotic susceptibility/resistance", "setting": "[2]; strain MRSA #12", "result": "Susceptible"}, {"measurement": "antibiotic susceptibility/resistance", "setting": "[2]; strain MRSA #13", "result": "Susceptible"}, {"measurement": "antibiotic susceptibility/resistance", "setting": "[2]; strain MRSA #14", "result": "Susceptible"}, {"measurement": "antibiotic susceptibility/resistance", "setting": "[2]; strain MRSA #15", "result": "Susceptible"}, {"measurement": "antibiotic susceptibility/resistance", "setting": "[2]; strain MRSA #16", "result": "Susceptible"}, {"measurement": "antibiotic susceptibility/resistance", "setting": "[2]; strain MRSA #17", "result": "Susceptible"}, {"measurement": "antibiotic susceptibility/resistance", "setting": "[2]; strain MRSA #18", "result": "Susceptible"}, {"measurement": "antibiotic susceptibility/resistance", "setting": "[2]; strain MRSA #19", "result": "Susceptible"}, {"measurement": "antibiotic susceptibility/resistance", "setting": "[2]; strain MRSA #20", "result": "Resistant"}, {"measurement": "antibiotic susceptibility/resistance", "setting": "[2]; strain MRSA #21", "result": "Susceptible"}, {"measurement": "antibiotic susceptibility/resistance", "setting": "[2]; strain MRSA #22", "result": "Susceptible"}, {"measurement": "antibiotic susceptibility/resistance", "setting": "[2]; strain MRSA #23", "result": "Susceptible"}, {"measurement": "antibiotic susceptibility/resistance", "setting": "[2]; strain MRSA #24", "result": "Susceptible"}, {"measurement": "antibiotic susceptibility/resistance", "setting": "[2]; strain MRSA #25", "result": "Susceptible"}, {"measurement": "antibiotic susceptibility/resistance", "setting": "[2]; strain MRSA #26", "result": "Susceptible"}, {"measurement": "antibiotic susceptibility/resistance", "setting": "[2]; strain MRSA #27", "result": "Susceptible"}, {"measurement": "antibiotic susceptibility/resistance", "setting": "[2]; strain MRSA #28", "result": "Susceptible"}, {"measurement": "antibiotic susceptibility/resistance", "setting": "[2]; strain MRSA #29", "result": "Susceptible"}, {"measurement": "antibiotic susceptibility/resistance", "setting": "[2]; strain MRSA #30", "result": "Resistant"}]}]}
